Experimental data as given in patent publication US12071392B2, “Aminoadamantyl nitrate compounds and their use to treat CNS disorders” (Panorama Research, Inc., priority 2017, dated 2024).
Like-named read-outs stand apart in the source and are kept apart here.

Key:
[1] = molecular target: T1, NMDA glutamate receptors NR1/NR2B encoded by the human GRIN1 and GRIN2B genes (Homo sapiens, UniProt Q05586+Q13224); experiment: IonWorks Barracuda automated patch clamp, inhibition of NR1/NR2B receptors in HEK293 cells; assay type: cell-based; conditions: for IC50: co-application with EC50 L-glutamate, −40 mV, 8-point concentration-response; for Effect on NR1/NR2B glutamate receptors (in words): patch clamp
T1 construct: expressed in transfected cells
T1 sequence (Q13224 27-1484, other chains not shown): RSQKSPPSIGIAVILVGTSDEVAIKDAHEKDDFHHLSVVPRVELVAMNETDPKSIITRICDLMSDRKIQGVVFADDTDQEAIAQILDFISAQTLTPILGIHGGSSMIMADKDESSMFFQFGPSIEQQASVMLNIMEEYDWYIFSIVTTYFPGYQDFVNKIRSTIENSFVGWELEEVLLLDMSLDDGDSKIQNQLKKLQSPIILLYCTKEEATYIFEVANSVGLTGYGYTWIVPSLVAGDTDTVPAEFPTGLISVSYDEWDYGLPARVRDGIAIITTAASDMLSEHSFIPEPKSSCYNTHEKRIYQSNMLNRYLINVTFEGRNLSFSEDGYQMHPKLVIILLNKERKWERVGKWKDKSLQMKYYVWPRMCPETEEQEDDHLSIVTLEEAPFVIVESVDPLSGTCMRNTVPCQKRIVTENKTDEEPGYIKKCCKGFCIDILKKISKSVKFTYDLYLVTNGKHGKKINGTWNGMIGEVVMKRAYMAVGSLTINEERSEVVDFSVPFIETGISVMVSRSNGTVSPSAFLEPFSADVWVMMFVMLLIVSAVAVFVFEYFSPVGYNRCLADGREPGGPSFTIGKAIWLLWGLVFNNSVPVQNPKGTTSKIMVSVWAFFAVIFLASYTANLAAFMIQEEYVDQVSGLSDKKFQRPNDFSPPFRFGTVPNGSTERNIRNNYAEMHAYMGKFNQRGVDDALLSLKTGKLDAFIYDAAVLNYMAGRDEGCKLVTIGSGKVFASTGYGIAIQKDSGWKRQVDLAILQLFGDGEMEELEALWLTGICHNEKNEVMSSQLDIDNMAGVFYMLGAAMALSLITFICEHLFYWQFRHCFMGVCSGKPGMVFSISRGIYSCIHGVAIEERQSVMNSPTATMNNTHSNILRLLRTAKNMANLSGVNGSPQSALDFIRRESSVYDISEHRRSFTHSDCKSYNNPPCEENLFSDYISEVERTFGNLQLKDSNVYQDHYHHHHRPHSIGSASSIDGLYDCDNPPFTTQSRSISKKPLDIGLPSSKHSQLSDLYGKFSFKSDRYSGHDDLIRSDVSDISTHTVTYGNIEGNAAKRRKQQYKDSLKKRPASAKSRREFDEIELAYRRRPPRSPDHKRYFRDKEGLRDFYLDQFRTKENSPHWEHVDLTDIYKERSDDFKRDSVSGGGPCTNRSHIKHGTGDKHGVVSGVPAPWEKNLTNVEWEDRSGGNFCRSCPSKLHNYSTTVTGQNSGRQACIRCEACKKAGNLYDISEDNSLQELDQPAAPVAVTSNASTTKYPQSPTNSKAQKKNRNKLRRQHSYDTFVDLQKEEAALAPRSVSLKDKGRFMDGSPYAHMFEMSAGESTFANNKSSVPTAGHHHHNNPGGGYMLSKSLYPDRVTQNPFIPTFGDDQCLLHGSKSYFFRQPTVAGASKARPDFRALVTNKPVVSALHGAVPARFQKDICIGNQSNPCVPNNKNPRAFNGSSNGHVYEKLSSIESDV
Description: Compounds were tested for inhibition of NMDA receptors using NMDA glutamate receptors NR1/NR2B encoded by the human GRIN1 and GRIN2B genes, expressed in HEK293 cells (originally from ATCC, Manassas, VA). Cells were maintained in tissue culture incubators, and stocks were maintained in cryogenic storage. Cells used for electrophysiology were plated in 150-mm plastic culture dishes. HEK293 cells were transfected with the appropriate ion channel or receptor cDNA(s) encoding NR1 and NR2B. Stable transfectants were selected using the G418 and Zeocin™-resistance genes incorporated into the expression plasmid. Selection pressure was maintained with G418 and Zeocin™ in the culture medium. Cells were cultured in Dulbecco's Modified Eagle Medium/Nutrient Mixture F-12 (D-MEM/F-12) supplemented with 10% fetal bovine serum, 100 U/mL penicillin G sodium, 100 μg/mL streptomycin sulfate, 100 μg/mL Zeocin™, 5 μg/mL blasticidin, and 500 μg/mL G418.
Test compounds were evaluated in 8-point concentration-response format (8 replicate wells/concentration). All test and control solutions contained 0.3% DMSO. The test article formulations were loaded in a 384-well plate using an automated liquid handling system (SciClone ALH3000, Caliper LifeScienses).
The effects of the test compounds were evaluated using the IonWorks® Barracuda™ Automated Patch Clamp System. Intracellular solution contained 50 mM CsCl, 90 mM CsF, 2 mM MgCl2, 5 mM EGTA, and 10 mM HEPES, pH 7.2. This solution was prepared in batches and stored refrigerated. In preparation for a recording session, the intracellular solution was loaded into the intracellular compartment of the PPC planar electrode. Extracellular solution (137 mM NaCl; 1.0 mM KCl; 5 mM CaCl2); 10 mM HEPES; 10 mM glucose; pH 7.4. Patch clamp measurements were made with a holding potential of −70 mV, and the potential during compound application was −40 mV. Extracellular buffer was loaded into the PPC plate wells (11 μL per well). Cell suspension was then pipetted into the wells (9 μL per well) of the PPC planar electrode. Whole-cell recording configuration was established via patch perforation with membrane currents recorded by on-board patch clamp amplifiers. […] The application consisted of two additions of 20 μL test solution containing antagonists at 10 μL/s (2 second total application time). First addition of 2× concentrated articles were preapplied for 5 minutes before the second addition of 1× concentrated articles. Data acquisition was performed via the IonWorks® Barracuda™ software, and data was analyzed using Microsoft Excel (Microsoft Corp., Redmond, WA). Concentration-response data was fitted to a Hill equation of the following form: RESPONSE=Base+[(Max−Base)/(1+(xhalf/x)^rate)] where Base is the response at low concentrations of test article, Max is the maximum response at high concentrations, xhalf is the EC50, or IC50, the concentration of test article producing either half-maximal activation or inhibition, and rate is the Hill coefficient. Nonlinear least squares fits were made assuming a simple binding model. Fits were weighted by the standard deviation. No assumptions about the fit parameters were made; the fit parameters were determined by the algorithm.

[2] = 7 days of infusion, cited from earlier work
[3] = read-out: Steady state current IC50

Compound | IC50 ([1]; read-out: Peak current IC50) | IC50 [1, 3] | Effect on NR1/NR2B glutamate receptors (in words) [1] | whole brain concentration higher than free concentration in serum ([2]; 20 mg/kg/day) | whole brain concentration higher than free concentration in serum ([2]; 100 mg/kg/day)
NCC1(c2cccc(OCCCO[N+](=O)[O-])c2)C2CC3CC(C2)CC1C3 (stereo not drawn) [Cmpd 4] | 35.2 µM | 34.2 µM |  |  | 
CCC12CC3(N)CC(CC)(C1)CC(O[N+](=O)[O-])(C3)C2 [YQW-036, Nitrosynapsin, reference compound] | 10.1 µM | 6.8 µM |  |  | 
CC12CC3CC(C)(C1)CC(N)(C3)C2.Cl [Memantine-HCl, Memantine, reference compound] |  |  | produced inhibition of the receptors | 44 fold | 
CC12CC3CC(CN)(C1)CC(O[N+](=O)[O-])(C3)C2 (stereo not drawn) [Cmpd 5] | 11.2 µM | 7.18 µM |  |  | 
N[C@@H](CCC(=O)O)C(=O)O [Glutamate CRC, L-glutamate, reference compound] |  |  | stimulated the receptors |  | 
NC12CC3CC(CC(C3)C1)C2 [amantadine] |  |  |  |  | 16 fold
NCC1(c2cccc(O[N+](=O)[O-])c2)C2CC3CC(C2)CC1C3 (stereo not drawn) [Cmpd 2] | 73.2 µM | 47.4 µM |  |  | 

Second part, led by results:

IC50 ([1]; read-out: Peak current IC50) | IC50 [1, 3] | Compound | Effect on NR1/NR2B glutamate receptors (in words) [1] | whole brain concentration higher than free concentration in serum ([2]; 20 mg/kg/day) | whole brain concentration higher than free concentration in serum ([2]; 100 mg/kg/day)
25.9 µM | 21 µM | CCC12CC3CC(N)(C1)CC(CO[N+](=O)[O-])(C3)C2 (stereo not drawn) [NM-004, reference compound] |  |  | 
8.01 µM | 5.08 µM | CCC(O[N+](=O)[O-])C12CC3(C)CC(C)(CC(CCN)(C3)C1)C2 (stereo not drawn) [Cmpd 3] |  |  | 
4.59 µM | 2.62 µM | CC12CC3(C)CC(CN)(C1)CC(CO[N+](=O)[O-])(C2)C3 [Cmpd 1] |  |  | 
